Measurements from ChEMBL document CHEMBL1201862, “PubChem BioAssay data set” (2004).
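The compound was tested at five concentrations on cells cultured in 96-well plates, with a 48-hour exposure period. The concentration for 50% growth inhibition is given as GI50.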 Calls of active or inactive are those of the source. Cut-off read from the data, not from the text of the source: active = GI50 up to about 1.1 µM and inactive = higher.

Tests used:
Experiment in all cases: DTP human tumour cell line panel, 48 h
HCT-116 = system: HCT-116
M14 = system: M14
RXF 393 = system: RXF 393
HOP-62 = system: HOP-62
K562 = system: K562
SK-MEL-2 = system: SK-MEL-2
SF-268 = system: SF-268
IGROV-1 = system: IGROV-1
OVCAR-5 = system: OVCAR-5
UO-31 = system: UO-31
HCT-15 = system: HCT-15
ACHN = system: ACHN
RPMI-8226 = system: RPMI-8226
SF-295 = system: SF-295
SNB-75 = system: SNB-75
SW-620 = system: SW-620
HCC 2998 = system: HCC 2998
EKVX = system: EKVX

SMILES	GI50 (HCT-116)	GI50 (M14)	GI50 (RXF 393)	GI50 (HOP-62)	GI50 (K562)	GI50 (SK-MEL-2)	GI50 (SF-268)	GI50 (IGROV-1)	GI50 (OVCAR-5)	GI50 (UO-31)	GI50 (HCT-15) [µM]	GI50 (ACHN)	GI50 (RPMI-8226)	GI50 (SF-295)	GI50 (SNB-75)	GI50 (SW-620)	GI50 (HCC 2998)	GI50 (EKVX)
Clc1ccc(CCn2cncn2)cc1	> 100 µM (inactive)	> 100 µM (inactive)	> 100 µM (inactive)	> 100 µM (inactive)	> 100 µM (inactive)	> 100 µM (inactive)	> 100 µM (inactive)	> 100 µM (inactive)	> 100 µM (inactive)	> 100 µM (inactive)	> 100	> 100 µM (inactive)	> 100 µM (inactive)	> 100 µM (inactive)	86.3 µM (inactive)	> 100 µM (inactive)		
CCOC(=O)[N-]c1ccc(S(=O)(=O)[O+](C)CCl)cc1.CCOC(=O)[N-]c1ccc(S(=O)(=O)[O+](C)CCl)cc1.NC(=O)N=O.NC(=O)OCCCl	> 100 µM (inactive)	> 100 µM (inactive)		> 100 µM (inactive)	> 100 µM (inactive)	> 100 µM (inactive)	> 100 µM (inactive)	> 100 µM (inactive)	> 100 µM (inactive)	> 100 µM (inactive)	> 100			> 100 µM (inactive)		> 100 µM (inactive)	> 100 µM (inactive)	
CC1=C(C(=O)NCc2ccccc2)C(c2ccc(N(C)C)cc2)C(C(=O)NCc2ccccc2)=C(C)N1	> 100 µM (inactive)	> 100 µM (inactive)	11.7 µM (inactive)	> 100 µM (inactive)	> 100 µM (inactive)	> 100 µM (inactive)		> 100 µM (inactive)	> 100 µM (inactive)	> 100 µM (inactive)		> 100 µM (inactive)	> 100 µM (inactive)	> 100 µM (inactive)	29.3 µM (inactive)	> 100 µM (inactive)	> 100 µM (inactive)	> 100 µM (inactive)
COC(=O)C(CC(=O)c1cc2c(cc1I)OCO2)Cc1cc(OC)c(OC)c(OC)c1I (stereo unspecified)	19.2 µM (inactive)		73.5 µM (inactive)	> 100 µM (inactive)	> 100 µM (inactive)	> 100 µM (inactive)	> 100 µM (inactive)	> 100 µM (inactive)	2.88 µM (inactive)		> 100	80.4 µM (inactive)	8.13 µM (inactive)	16.8 µM (inactive)		> 100 µM (inactive)	> 100 µM (inactive)	> 100 µM (inactive)
CC(=O)c1ccc(OCC(O)CO)cc1 (stereo unspecified)	17.3 µM (inactive)	> 100 µM (inactive)		> 100 µM (inactive)	61.9 µM (inactive)		> 100 µM (inactive)	> 100 µM (inactive)	> 100 µM (inactive)	> 100 µM (inactive)	> 100	> 100 µM (inactive)	62.7 µM (inactive)	> 100 µM (inactive)	> 100 µM (inactive)	14.9 µM (inactive)	> 100 µM (inactive)	> 100 µM (inactive)
Nc1ccc(N)c2c1C(=O)c1ccccc1C2=O	11.1 µM (inactive)	17.7 µM (inactive)		5.01 µM (inactive)	27.6 µM (inactive)	79.1 µM (inactive)	51.3 µM (inactive)	6.44 µM (inactive)	> 100 µM (inactive)	12.4 µM (inactive)	4.41	4.66 µM (inactive)	9.16 µM (inactive)		> 100 µM (inactive)	32.7 µM (inactive)	3.97 µM (inactive)	87.5 µM (inactive)
O=C1c2ccccc2C2(O)NC(=S)N(c3ccccc3)C12O (stereo unspecified)	> 100 µM (inactive)	> 100 µM (inactive)			> 100 µM (inactive)	> 100 µM (inactive)	> 100 µM (inactive)	> 100 µM (inactive)	> 100 µM (inactive)	> 100 µM (inactive)	> 100		> 100 µM (inactive)	> 100 µM (inactive)	> 100 µM (inactive)	> 100 µM (inactive)	> 100 µM (inactive)	> 100 µM (inactive)
Cc1cc(Cl)ccc1NC(=O)CCCC(=O)C1CCCC1=O (stereo unspecified)	> 100 µM (inactive)	> 100 µM (inactive)			> 100 µM (inactive)	> 100 µM (inactive)	> 100 µM (inactive)	> 100 µM (inactive)	> 100 µM (inactive)	> 100 µM (inactive)	> 100	> 100 µM (inactive)	> 100 µM (inactive)	> 100 µM (inactive)		> 100 µM (inactive)	> 100 µM (inactive)	> 100 µM (inactive)
CCOC(=O)/C(=C/c1ccco1)P(=O)(OCC)OCC	> 100 µM (inactive)	> 100 µM (inactive)			> 100 µM (inactive)	> 100 µM (inactive)	> 100 µM (inactive)	> 100 µM (inactive)	> 100 µM (inactive)	> 100 µM (inactive)	> 100	> 100 µM (inactive)	> 100 µM (inactive)	> 100 µM (inactive)	> 100 µM (inactive)	> 100 µM (inactive)	> 100 µM (inactive)	> 100 µM (inactive)
NCc1ccccc1C1CSCSC1	> 100 µM (inactive)		39.8 µM (inactive)		> 100 µM (inactive)	> 100 µM (inactive)	> 100 µM (inactive)			> 100 µM (inactive)	> 100	> 100 µM (inactive)		> 100 µM (inactive)	> 100 µM (inactive)	> 100 µM (inactive)		
Cc1nc2c(n1-c1ccccc1)C(=O)c1ccccc1C2=O	22.2 µM (inactive)	42 µM (inactive)	75.2 µM (inactive)	> 100 µM (inactive)	32.2 µM (inactive)	> 100 µM (inactive)	54.8 µM (inactive)		> 100 µM (inactive)	73.3 µM (inactive)	20.6	56.9 µM (inactive)		38.4 µM (inactive)	> 100 µM (inactive)	35.5 µM (inactive)	39.6 µM (inactive)	> 100 µM (inactive)
Cc1cc(O)c(C(=O)CC2(O)C(=O)Nc3c(Cl)cc(Cl)cc32)c(=O)o1 (stereo unspecified)	> 100 µM (inactive)	> 100 µM (inactive)		> 100 µM (inactive)	> 100 µM (inactive)	> 100 µM (inactive)	> 100 µM (inactive)	> 100 µM (inactive)	> 100 µM (inactive)	> 100 µM (inactive)	> 100	> 100 µM (inactive)	55.5 µM (inactive)	> 100 µM (inactive)	26.6 µM (inactive)	52.1 µM (inactive)	> 100 µM (inactive)	> 100 µM (inactive)
CCOC(=O)C12CCC(=O)C=C1[C@@H](C)C(=O)CC2 (stereo partly specified)	> 100 µM (inactive)	> 100 µM (inactive)	> 100 µM (inactive)	> 100 µM (inactive)		> 100 µM (inactive)	> 100 µM (inactive)	> 100 µM (inactive)	> 100 µM (inactive)	> 100 µM (inactive)	> 100	> 100 µM (inactive)	> 100 µM (inactive)	> 100 µM (inactive)	> 100 µM (inactive)	> 100 µM (inactive)	> 100 µM (inactive)	> 100 µM (inactive)
O=C1Sc2ccccc2C(=O)N2CCSC12 (stereo unspecified)	> 100 µM (inactive)	> 100 µM (inactive)	> 100 µM (inactive)	> 100 µM (inactive)	> 100 µM (inactive)	> 100 µM (inactive)		> 10 µM (inactive)	> 100 µM (inactive)	> 100 µM (inactive)	> 100		> 100 µM (inactive)	> 100 µM (inactive)		> 100 µM (inactive)	> 100 µM (inactive)	
O=C(Nc1cccc(O)c1)C(=O)C1C(=O)NC(=S)NC1=O	> 100 µM (inactive)	> 100 µM (inactive)	> 100 µM (inactive)		> 100 µM (inactive)		> 100 µM (inactive)	> 100 µM (inactive)		> 100 µM (inactive)	> 100	> 100 µM (inactive)	> 100 µM (inactive)	> 100 µM (inactive)	> 100 µM (inactive)	> 100 µM (inactive)	> 100 µM (inactive)	> 100 µM (inactive)
O=C(c1ccco1)c1ccccc1C(=O)c1ccco1	> 100 µM (inactive)	> 100 µM (inactive)	> 100 µM (inactive)	> 100 µM (inactive)	> 100 µM (inactive)	> 100 µM (inactive)	> 100 µM (inactive)	> 100 µM (inactive)	> 100 µM (inactive)	> 100 µM (inactive)	> 100	> 100 µM (inactive)		> 100 µM (inactive)	> 100 µM (inactive)	> 100 µM (inactive)	> 100 µM (inactive)	> 100 µM (inactive)
Cc1ccc(C)c(NC(=O)C(=O)CC(=O)C2CCOC2=O)c1 (stereo unspecified)	> 100 µM (inactive)	> 100 µM (inactive)	> 100 µM (inactive)	> 100 µM (inactive)	> 100 µM (inactive)	> 100 µM (inactive)	> 100 µM (inactive)	> 100 µM (inactive)	> 100 µM (inactive)	> 100 µM (inactive)	> 100	> 100 µM (inactive)	> 100 µM (inactive)	> 100 µM (inactive)	67.5 µM (inactive)	> 100 µM (inactive)		> 100 µM (inactive)
CCCCCCCCOCC(O)COC(=O)CCCCCCC (stereo unspecified)	> 100 µM (inactive)	> 100 µM (inactive)		> 100 µM (inactive)	31.2 µM (inactive)		95.5 µM (inactive)	> 100 µM (inactive)	> 100 µM (inactive)	> 100 µM (inactive)	> 100	> 100 µM (inactive)	27.1 µM (inactive)	> 100 µM (inactive)		> 100 µM (inactive)	30.7 µM (inactive)	
